In brackets after ≈: the same amount, converted by molar mass. Square brackets hold non-standard residues; d marks the D form. Peptide text beside a SMILES is read from it. ξ: configuration not given here. Oic(3aξ,7aξ) = O=C(O)[C@@H]1CC2CCCCC2N1; Tiq1c(1S) = O=C(O)[C@H]1NCCc2ccccc21
Tests used:
Brucella abortus = experiment: Antimicrobial activity against Brucella abortus 2308; format: functional
[1] = Binding affinity to DPC micelles by CD spectra analysis; format: physicochemical
Acinetobacter baumannii [2] = experiment: Antimicrobial activity against Acinetobacter baumannii WRAIR; format: functional
[3] = Induction of calcein leakage in 1-palmitoyl-2-oleoyl-sn-glycero-3-phosphocholine large unilamellar vesicle assessed as leakage constant after 90 mins by fluorescence assay; format: physicochemical; details: 1.5 h
[4] = Binding affinity to 1-palmitoyl-2-oleoyl-sn-glycero-3-phosphocholine/1-palmitoyl- 2-oleoyl-sn-glycero-3-[phospho-rac-(1-glycerol)] (sodium salt) large unilamellar vesicle in 40 mM phosphate buffer at pH 6.8 at 100 uM by Far-UV CD spectra analysis; format: physicochemical; details: pH 6.8, 100 µM
[5] = Binding affinity to 1-palmitoyl-2-oleoyl-sn-glycero-3-phosphocholine large unilamellar vesicle at 100 uM by isothermal titration calorimetry analysis; format: physicochemical
Yersinia pestis = experiment: Antimicrobial activity against Yersinia pestis CO92; format: functional
[6] = Binding affinity to 1-palmitoyl-2-oleoyl-sn-glycero-3-phosphocholine small unilamellar vesicle in 40 mM phosphate buffer at pH 6.8 at 100 uM by Far-UV CD spectra analysis; format: physicochemical; details: pH 6.8, 100 µM
Staphylococcus aureus [7] = experiment: Antimicrobial activity against Staphylococcus aureus ATCC 33591; format: functional
[8] = Binding affinity to 1-palmitoyl-2-oleoyl-sn-glycero-3-phosphocholine/1-palmitoyl- 2-oleoyl-sn-glycero-3-[phospho-rac-(1-glycerol)] (sodium salt) small unilamellar vesicle in 40 mM phosphate buffer at pH 6.8 at 100 uM by Far-UV CD spectra analysis; format: physicochemical; details: pH 6.8, 100 µM
[9] = tested on: Francisella tularensis subsp. tularensis SCHU S4; experiment: Antimicrobial activity against Francisella tularensis SCHUS4; format: functional
[10] = Induction of calcein leakage in 1-palmitoyl-2-oleoyl-sn-glycero-3-phosphocholine large unilamellar vesicle at 4 to 20 uM after 90 mins by fluorescence assay; format: physicochemical; details: 1.5 h
[11] = Induction of calcein leakage in 1-palmitoyl-2-oleoyl-sn-glycero-3-phosphocholine/1-palmitoyl- 2-oleoyl-sn-glycero-3-[phospho-rac-(1-glycerol)] (sodium salt) large unilamellar vesicle at 4 to 20 uM after 90 mins by fluorescence assay; format: physicochemical; details: 1.5 h
Bacillus anthracis = experiment: Antimicrobial activity against Bacillus anthracis AMES; format: functional
Burkholderia mallei = experiment: Antimicrobial activity against Burkholderia mallei; format: functional
Acinetobacter baumannii [12] = experiment: Antimicrobial activity against Acinetobacter baumannii ATCC 19606; format: functional
[13] = Binding affinity to SDS micelles by CD spectra analysis; format: physicochemical
Brucella suis = experiment: Antimicrobial activity against Brucella suis 23444; format: functional
[14] = tested on: Burkholderia pseudomallei; experiment: Antimicrobial activity against Burkholderia pseudomallei; format: functional
[15] = Binding affinity to 1-palmitoyl-2-oleoyl-sn-glycero-3-phosphocholine/1-palmitoyl- 2-oleoyl-sn-glycero-3-[phospho-rac-(1-glycerol)] (sodium salt) large unilamellar vesicle at 200 uM by isothermal titration calorimetry analysis; format: physicochemical
Brucella melitensis = experiment: Antimicrobial activity against Brucella melitensis 16M; format: functional
[16] = Induction of calcein leakage in 1-palmitoyl-2-oleoyl-sn-glycero-3-phosphocholine/1-palmitoyl- 2-oleoyl-sn-glycero-3-[phospho-rac-(1-glycerol)] (sodium salt) large unilamellar vesicle assessed as leakage constant after 90 mins by fluorescence assay; format: physicochemical; details: 1.5 h
[17] = Binding affinity to 1-palmitoyl-2-oleoyl-sn-glycero-3-phosphocholine large unilamellar vesicle in 40 mM phosphate buffer at pH 6.8 at 100 uM by Far-UV CD spectra analysis; format: physicochemical; details: pH 6.8, 100 µM
[18] = Binding affinity to 1-palmitoyl-2-oleoyl-sn-glycero-3-phosphocholine/1-palmitoyl- 2-oleoyl-sn-glycero-3-[phospho-rac-(1-glycerol)] (sodium salt) small unilamellar vesicle in 40 mM phosphate buffer at pH 6.8 at 75 uM by Far-UV CD spectra analysis; format: physicochemical; details: pH 6.8, 75 µM
[19] = Binding affinity to 1-palmitoyl-2-oleoyl-sn-glycero-3-phosphocholine large unilamellar vesicle at 200 uM by isothermal titration calorimetry analysis; format: physicochemical
[20] = Binding affinity to 1-palmitoyl-2-oleoyl-sn-glycero-3-phosphocholine large unilamellar vesicle in 40 mM phosphate buffer at pH 6.8 at 75 uM by Far-UV CD spectra analysis; format: physicochemical; details: pH 6.8, 75 µM
Salmonella typhimurium = experiment: Antimicrobial activity against Salmonella typhimurium; format: functional, Salmonella enterica subsp. enterica serovar Typhimurium; details: Salmonella enterica
Bacillus subtilis = experiment: Antimicrobial activity against Bacillus subtilis; format: functional
[21] = Binding affinity to 1-palmitoyl-2-oleoyl-sn-glycero-3-phosphocholine/1-palmitoyl- 2-oleoyl-sn-glycero-3-[phospho-rac-(1-glycerol)] (sodium salt) large unilamellar vesicle in 40 mM phosphate buffer at pH 6.8 at 75 uM by Far-UV CD spectra analysis; format: physicochemical; details: pH 6.8, 75 µM
Mycobacterium = experiment: Antimicrobial activity against Mycobacterium ranae; format: functional
Staphylococcus aureus [22] = experiment: Antimicrobial activity against ME/GM/TC-resistant Staphylococcus aureus; format: functional
[23] = Binding affinity to 1-palmitoyl-2-oleoyl-sn-glycero-3-phosphocholine small unilamellar vesicle in 40 mM phosphate buffer at pH 6.8 at 75 uM by Far-UV CD spectra analysis; format: physicochemical; details: pH 6.8, 75 µM

SMILES	MIC (Brucella abortus) [µM]	Activity [1]	MIC (Acinetobacter baumannii [2]) [µM]	K [3]	Activity [4]	Activity [5]	MIC (Yersinia pestis) [µM]	Activity [6]	MIC (Staphylococcus aureus [7]) [µM]	Activity [8]	MIC [9] [µM]	Activity [11]	MIC (Bacillus anthracis) [µM]	MIC (Burkholderia mallei) [µM]	MIC (Acinetobacter baumannii [12]) [µM]	Activity [13]	MIC (Brucella suis) [µM]	MIC [14] [µM]	Activity [15]	K [16]	further results
CC(=O)NCC(=O)N[C@@H](Cc1ccccc1)C(=O)N1CCc2ccccc2[C@H]1C(=O)N1C2CCCCC2C[C@H]1C(=O)NCC(=O)N[C@@H](CCCCN)C(=O)N1CCc2ccccc2[C@H]1C(=O)N1C2CCCCC2C[C@H]1C(=O)NCC(=O)N[C@@H](Cc1ccccc1)C(=O)N1CCc2ccccc2[C@H]1C(=O)N1C2CCCCC2C[C@H]1C(=O)NCC(=O)N[C@@H](CCCCN)C(=O)N1CCc2ccccc2[C@H]1C(=O)N[C@@H](CCCCN)C(=O)N[C@@H](CCCCN)C(=O)N[C@@H](CCCCN)C(N)=O (stereo partly drawn) (Ac-GF[Tiq1c(1S)][Oic(3aξ,7aξ)]GK[Tiq1c(1S)][Oic(3aξ,7aξ)]GF[Tiq1c(1S)][Oic(3aξ,7aξ)]GK[Tiq1c(1S)]KKK-NH2)	27 (≈ 62.4 µg/mL)	Active	3.4 (≈ 7.86 µg/mL)	0.014	Active	Active	27 (≈ 62.4 µg/mL)	Active	54 (≈ 125 µg/mL)	Active	0.02 (≈ 0.0463 µg/mL)	Active	27 (≈ 62.4 µg/mL)	0.02 (≈ 0.0463 µg/mL)	6.7 (≈ 15.5 µg/mL)	Active	> 216	0.02 (≈ 0.0463 µg/mL)	Active	0.075	Activity [10]: Active; MIC (Brucella melitensis): 54 µM (≈ 125 µg/mL); Activity [17]: Active
CC(=O)NCC(=O)N[C@@H](Cc1ccccc1)C(=O)N1CCc2ccccc2[C@H]1C(=O)N1C2CCCCC2C[C@H]1C(=O)NCC(=O)N[C@@H](CCCCN)C(=O)N1CCc2ccccc2[C@H]1C(=O)N1C2CCCCC2C[C@H]1C(=O)NCC(=O)N[C@@H](Cc1ccccc1)C(=O)N1CCc2ccccc2[C@H]1C(=O)N1C2CCCCC2C[C@H]1C(=O)NCC(=O)N[C@@H](CCCCN)C(=O)N1CCc2ccccc2[C@H]1C(=O)N[C@@H](CCCCN)C(=O)N[C@@H](CCCCN)C(=O)N[C@@H](CCCCN)C(=O)N[C@@H](CCCCN)C(N)=O (stereo partly drawn) (Ac-GF[Tiq1c(1S)][Oic(3aξ,7aξ)]GK[Tiq1c(1S)][Oic(3aξ,7aξ)]GF[Tiq1c(1S)][Oic(3aξ,7aξ)]GK[Tiq1c(1S)]KKKK-NH2)	205 (≈ 500 µg/mL)	Active	3.2 (≈ 7.81 µg/mL)	0.097			205 (≈ 500 µg/mL)		205 (≈ 500 µg/mL)		100 (≈ 244 µg/mL)	Not Active	12.8 (≈ 31.2 µg/mL)	205 (≈ 500 µg/mL)	3.2 (≈ 7.81 µg/mL)	Active	205 (≈ 500 µg/mL)	205 (≈ 500 µg/mL)	Active	0.089	Activity [18]: Active; Activity [19]: Active; Activity [20]: Active; MIC (Salmonella typhimurium): 10 µM (≈ 24.4 µg/mL); MIC (Bacillus subtilis): 1 µM (≈ 2.44 µg/mL); Activity [21]: Active; MIC (Mycobacterium): 10 µM (≈ 24.4 µg/mL); MIC (Staphylococcus aureus [22]): 3 µM (≈ 7.32 µg/mL); Activity [23]: Active; MIC (Brucella melitensis): 205 µM (≈ 500 µg/mL)
CC(=O)NCC(=O)N[C@@H](Cc1ccccc1)C(=O)N1CCc2ccccc2[C@H]1C(=O)N1C2CCCCC2C[C@H]1C(=O)NCC(=O)N[C@@H](CCCCN)C(=O)N1CCc2ccccc2[C@H]1C(=O)N1C2CCCCC2C[C@H]1C(=O)NCC(=O)N[C@@H](Cc1ccccc1)C(=O)N1CCc2ccccc2[C@H]1C(=O)N1C2CCCCC2C[C@H]1C(=O)NCC(=O)N[C@@H](CCCCN)C(=O)N1CCc2ccccc2[C@H]1C(=O)N[C@@H](CCCCN)C(=O)N[C@@H](CCCCN)C(=O)N[C@@H](CCCCN)C(=O)N[C@@H](CCCCN)C(=O)N[C@@H](CCCCN)C(N)=O (stereo partly drawn) (Ac-GF[Tiq1c(1S)][Oic(3aξ,7aξ)]GK[Tiq1c(1S)][Oic(3aξ,7aξ)]GF[Tiq1c(1S)][Oic(3aξ,7aξ)]GK[Tiq1c(1S)]KKKKK-NH2)				0.0011	Active	Active		Active		Active		Not Active							Active	0.073	MIC (Salmonella typhimurium): 10 µM (≈ 25.7 µg/mL); MIC (Bacillus subtilis): 1 µM (≈ 2.57 µg/mL); MIC (Mycobacterium): 3 µM (≈ 7.71 µg/mL); MIC (Staphylococcus aureus [22]): 3 µM (≈ 7.71 µg/mL); Activity [17]: Active
CC(=O)N[C@@H](CCCCN)C(=O)N[C@@H](CCCCN)C(=O)N[C@@H](CCCCN)C(=O)N[C@@H](CCCCN)C(=O)NCC(=O)N[C@@H](Cc1ccccc1)C(=O)N1CCc2ccccc2[C@H]1C(=O)N1C2CCCCC2C[C@H]1C(=O)NCC(=O)N[C@@H](CCCCN)C(=O)N1CCc2ccccc2[C@H]1C(=O)N1C2CCCCC2C[C@H]1C(=O)NCC(=O)N[C@@H](Cc1ccccc1)C(=O)N1CCc2ccccc2[C@H]1C(=O)N1C2CCCCC2C[C@H]1C(=O)NCC(=O)N[C@@H](CCCCN)C(=O)N1CCc2ccccc2[C@H]1C(N)=O (stereo partly drawn) (Ac-KKKKGF[Tiq1c(1S)][Oic(3aξ,7aξ)]GK[Tiq1c(1S)][Oic(3aξ,7aξ)]GF[Tiq1c(1S)][Oic(3aξ,7aξ)]GK[Tiq1c(1S)]-NH2)	51 (≈ 124 µg/mL)	Active	12.8 (≈ 31.2 µg/mL)	0.57	Active	Active	13.1 (≈ 32 µg/mL)	Active	102 (≈ 249 µg/mL)	Active	51 (≈ 124 µg/mL)	Active	0.4 (≈ 0.976 µg/mL)	204 (≈ 498 µg/mL)	12.8 (≈ 31.2 µg/mL)	Active	25.6 (≈ 62.5 µg/mL)	204 (≈ 498 µg/mL)	Active	0.0085	MIC (Salmonella typhimurium): 100 µM (≈ 244 µg/mL); Activity [10]: Active; MIC (Mycobacterium): 3 µM (≈ 7.32 µg/mL); MIC (Staphylococcus aureus [22]): 30 µM (≈ 73.2 µg/mL); MIC (Brucella melitensis): 51 µM (≈ 124 µg/mL); Activity [17]: Active

From ChEMBL document CHEMBL2177070, “The effect of the placement and total charge of the basic amino acid clusters on antibacterial organism selectivity and potency” (Bioorg Med Chem, 2011)
